Here are results for one compound from ChEMBL document CHEMBL1131847, “Opsin shift in an aldolase antibody” (Bioorg Med Chem Lett, 1999).

The nature of this test: Compound (1.7 x 10E-3 M) was evaluated for the formation of all-trans retinal schiff base with Lysine residue which exhibits significant Opsin shift of naturally occurring visual pigments; Active. The class given is functional.

Molecules are shown by their SMILES. The source made the active and inactive calls. The rule behind the calls is not given here.

In the case of `CC1=C(/C=C/C(C)=C/C=C/C(C)=C/C=O)C(C)(C)CCC1`, the Opsin shift activity result was “Active”.
